Laboratory results taken from ChEMBL document CHEMBL5543153, “Discovery of a Potent Dual Son of Sevenless 1 (SOS1) and Epidermal Growth Factor Receptor (EGFR) Inhibitor for the Treatment of Prostate Cancer” (J Med Chem, 2024).
Activity calls are given as the source filed them. The rule behind the calls is not given here.

Legend:
PC-3 [1] = assay: Antiproliferative activity against human PC-3 cells transfected with control shRNA assessed as inhibition of cell growth incubated for 72 hrs by MTT assay; format: functional, cell-based; settings: PC-3, 72 h
PC-3 [2] = assay: Induction of apoptosis in human PC-3 cells assessed as viable cells at 12.5 uM by Annexin V-FITC staining based flow cytometry (reference value: 94.9%); format: functional; settings: read-out: Activity
[3] = Toxicity in BALB/c mouse xenografted with human PC-3 cells assessed as spleen pathological change at 20 mg/kg,ip administrated once every 4 days for 24 days by hematoxylin and eosin staining based analysis; format: organism-based; settings: in vivo, 576 h, time 24 day
PC-3 [4] = assay: Induction of apoptosis in human PC-3 cells assessed as viable cells at 0.5 uM by Annexin V-FITC staining based flow cytometry (reference value: 94.9%); format: functional; settings: read-out: Activity
PC-3 [5] = assay: Induction of apoptosis in human PC-3 cells assessed as late apoptotic cells at 2.5 uM by Annexin V-FITC staining based flow cytometry (reference value: 1.93%); format: functional
[6] = biological target: T1, Son of sevenless homolog 1 (Homo sapiens) (UniProt Q07889); assay: Inhibition of SOS1 in human PC-3 cells assessed as downregulation of AKT phosphorylation at 12.5 uM incubated for 15 mins by Western blotting analysis; format: cell-based
T1 sequence (whole entry): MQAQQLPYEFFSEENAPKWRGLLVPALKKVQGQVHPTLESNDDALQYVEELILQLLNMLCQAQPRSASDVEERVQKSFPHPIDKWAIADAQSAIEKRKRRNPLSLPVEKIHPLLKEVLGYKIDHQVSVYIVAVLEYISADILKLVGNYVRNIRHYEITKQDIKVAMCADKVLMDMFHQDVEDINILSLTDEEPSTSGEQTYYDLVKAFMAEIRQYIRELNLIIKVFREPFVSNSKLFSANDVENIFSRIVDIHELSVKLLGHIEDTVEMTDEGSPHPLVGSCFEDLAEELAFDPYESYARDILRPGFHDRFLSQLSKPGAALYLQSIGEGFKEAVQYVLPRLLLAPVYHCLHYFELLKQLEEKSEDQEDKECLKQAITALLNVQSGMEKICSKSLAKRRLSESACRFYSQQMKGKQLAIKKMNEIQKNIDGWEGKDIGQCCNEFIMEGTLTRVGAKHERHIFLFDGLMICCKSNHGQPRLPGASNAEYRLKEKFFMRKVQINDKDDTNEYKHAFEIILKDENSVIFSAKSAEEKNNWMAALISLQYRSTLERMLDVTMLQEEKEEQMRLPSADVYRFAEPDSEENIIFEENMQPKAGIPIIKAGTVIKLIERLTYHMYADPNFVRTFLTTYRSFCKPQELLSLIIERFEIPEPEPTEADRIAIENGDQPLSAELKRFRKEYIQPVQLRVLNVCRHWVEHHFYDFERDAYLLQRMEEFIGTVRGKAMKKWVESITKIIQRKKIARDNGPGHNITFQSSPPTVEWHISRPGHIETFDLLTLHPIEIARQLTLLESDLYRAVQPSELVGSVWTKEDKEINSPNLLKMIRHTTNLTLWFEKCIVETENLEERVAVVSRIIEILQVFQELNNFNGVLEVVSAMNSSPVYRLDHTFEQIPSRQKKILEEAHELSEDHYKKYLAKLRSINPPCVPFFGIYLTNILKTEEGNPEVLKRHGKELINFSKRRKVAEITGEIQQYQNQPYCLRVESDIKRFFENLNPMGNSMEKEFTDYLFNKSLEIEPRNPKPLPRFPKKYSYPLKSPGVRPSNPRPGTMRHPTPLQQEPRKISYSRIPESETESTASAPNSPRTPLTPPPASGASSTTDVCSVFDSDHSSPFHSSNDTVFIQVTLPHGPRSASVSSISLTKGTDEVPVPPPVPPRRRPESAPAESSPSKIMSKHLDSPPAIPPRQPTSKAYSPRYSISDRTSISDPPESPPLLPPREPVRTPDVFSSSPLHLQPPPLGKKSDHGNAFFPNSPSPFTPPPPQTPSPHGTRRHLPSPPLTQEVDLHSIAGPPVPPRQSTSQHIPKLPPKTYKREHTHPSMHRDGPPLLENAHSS

HUVEC [7] = assay: Antiangiogenic activity in HUVEC cells assessed as reduction in tube length at 0.5 to 12.5 uM incubated for 8 hrs by matrigel based microscopic analysis; format: functional, cell-based; settings: Homo sapiens, dose 0.5-12.5 µM
HUVEC [8] = assay: Antiangiogenic activity in HUVEC cells assessed as reduction in tube segments at 0.5 to 12.5 uM incubated for 8 hrs by matrigel based microscopic analysis; format: functional, cell-based; settings: Homo sapiens, dose 0.5-12.5 µM
[9] = Toxicity in BALB/c mouse xenografted with human PC-3 cells assessed as liver pathological change at 20 mg/kg,ip administrated once every 4 days for 24 days by hematoxylin and eosin staining based analysis; format: organism-based; settings: in vivo, 576 h, time 24 day
[10] = biological target: T2, Epidermal growth factor receptor (Homo sapiens, UniProt P00533); assay: Inhibition of EGFR in human PC-3 cells assessed as downregulation of AKT phosphorylation at 2.5 uM incubated for 15 mins by Western blotting analysis; format: cell-based
[11] = Toxicity in BALB/c mouse xenografted with human PC-3 cells assessed as change in ALT level at 20 mg/kg,ip administrated once every 4 days for 24 days by automatic biochemical analyzer; format: organism-based; settings: in vivo, 576 h, time 24 day
PC-3 [12] = assay: Induction of cell cycle arrest in human PC-3 cells assessed as downregulation of cyclin D1 expression by Western blotting analysis; format: functional, cell-based
HUVEC [13] = assay: Antiangiogenic activity in HUVEC cells assessed as reduction of meshes at 0.5 to 12.5 uM incubated for 8 hrs by matrigel based microscopic analysis; format: functional, cell-based; settings: Homo sapiens, dose 0.5-12.5 µM
PC-3 [14] = assay: Antiproliferative activity against human PC-3 cells assessed as reduction in EdU-positive cells at 0.5 to 12.5 uM incubated for 48 hrs by EdU incorporation assay; format: functional, cell-based; settings: dose 0.5-12.5 µM
[15] = biological target: T2, Epidermal growth factor receptor; assay: Inhibition of EGFR (unknown origin) using ultra ULight GT peptide as substrate incubated for 2 hrs
PC-3 [16] = assay: Induction of apoptosis in human PC-3 cells assessed as upregulation of cleaved caspase-3 expression by Western blotting analysis; format: functional, cell-based
[17] = Toxicity in BALB/c mouse xenografted with human PC-3 cells assessed as change in body weight at 20 mg/kg,ip administrated once every 4 days for 24 days; format: organism-based; settings: in vivo, 576 h, time 24 day
HUVEC [18] = assay: Antiangiogenic activity in HUVEC cells assessed as reduction of mean mesh at 0.5 to 12.5 uM incubated for 8 hrs by matrigel based microscopic analysis; format: functional, cell-based; settings: Homo sapiens, dose 0.5-12.5 µM
[19] = Toxicity in BALB/c mouse xenografted with human PC-3 cells assessed as change in creatinine level at 5 mg/kg,ip administrated once every 4 days for 24 days by automatic biochemical analyzer; format: organism-based; settings: in vivo, 576 h, time 24 day
K562 = assay: Antiproliferative activity against human K562 cells assessed as inhibition of cell growth incubated for 72 hrs by MTT assay; format: functional, cell-based
PC-3 [20] = assay: Induction of apoptosis in human PC-3 cells assessed as late apoptotic cells at 12.5 uM by Annexin V-FITC staining based flow cytometry (reference value: 1.93%); format: functional
[21] = biological target: T2, Epidermal growth factor receptor; assay: Inhibition of EGFR in human PC-3 cells assessed as downregulation of EGF-mediated AKT phosphorylation at 0.5 uM incubated for 15 mins in presence of EGF by Western blotting analysis; format: cell-based

T2 sequence (P00533 whole entry): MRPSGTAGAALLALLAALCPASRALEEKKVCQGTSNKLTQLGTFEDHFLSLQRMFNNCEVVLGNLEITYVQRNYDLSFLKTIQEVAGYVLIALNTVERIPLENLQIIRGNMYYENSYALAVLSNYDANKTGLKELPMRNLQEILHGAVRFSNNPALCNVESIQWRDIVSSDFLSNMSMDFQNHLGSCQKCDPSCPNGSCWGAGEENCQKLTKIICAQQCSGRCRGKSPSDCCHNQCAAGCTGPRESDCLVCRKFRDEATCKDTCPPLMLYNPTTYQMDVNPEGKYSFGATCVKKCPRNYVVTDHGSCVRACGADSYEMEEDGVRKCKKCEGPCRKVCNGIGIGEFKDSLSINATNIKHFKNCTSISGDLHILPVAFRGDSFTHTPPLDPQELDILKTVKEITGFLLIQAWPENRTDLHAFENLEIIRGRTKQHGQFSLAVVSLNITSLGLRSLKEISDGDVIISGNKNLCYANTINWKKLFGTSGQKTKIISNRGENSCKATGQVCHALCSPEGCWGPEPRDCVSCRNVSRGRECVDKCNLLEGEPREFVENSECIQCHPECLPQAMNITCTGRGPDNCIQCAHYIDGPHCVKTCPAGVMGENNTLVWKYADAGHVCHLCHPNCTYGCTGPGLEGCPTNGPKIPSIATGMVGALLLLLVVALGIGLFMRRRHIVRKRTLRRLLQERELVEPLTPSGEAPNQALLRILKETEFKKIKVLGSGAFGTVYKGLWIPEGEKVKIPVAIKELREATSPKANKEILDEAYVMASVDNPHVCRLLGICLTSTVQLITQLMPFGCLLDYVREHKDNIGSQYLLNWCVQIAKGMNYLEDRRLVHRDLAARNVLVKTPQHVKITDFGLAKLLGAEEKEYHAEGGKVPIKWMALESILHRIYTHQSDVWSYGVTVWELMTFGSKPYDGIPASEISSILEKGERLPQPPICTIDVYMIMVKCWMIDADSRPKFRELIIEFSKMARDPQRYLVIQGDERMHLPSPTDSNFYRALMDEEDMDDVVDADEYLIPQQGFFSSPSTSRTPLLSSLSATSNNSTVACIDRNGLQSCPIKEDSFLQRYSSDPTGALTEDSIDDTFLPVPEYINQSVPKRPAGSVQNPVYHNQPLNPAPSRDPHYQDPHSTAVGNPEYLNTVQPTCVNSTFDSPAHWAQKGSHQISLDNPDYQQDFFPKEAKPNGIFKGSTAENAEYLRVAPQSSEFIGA

SMILES: COc1cc2ncnc(N[C@H](C)c3cccc(F)c3)c2cc1OC1CCOCC1
- IC50 (PC-3 [1]): 430 nM
- viability at 12.5 µM (PC-3 [2]): 74.3%
- Activity [3]: Toxic
- viability at 0.5 µM (PC-3 [4]): 84.9%
- Activity (PC-3 [5]): 3.36%
- inhibition [6]: Active
- Activity (HUVEC [7]): Active
- Activity (HUVEC [8]): Active
- Activity [9]: Toxic
- inhibition [10]: Active
- Activity [11]: Non-Toxic
- Activity (PC-3 [12]): Dose-Dependent Effect
- Activity (HUVEC [13]): Active
- Activity (PC-3 [14]): Active
- IC50 [15]: 1.01 nM
- Activity (PC-3 [16]): Dose-Dependent Effect
- Activity [17]: Toxic
- Activity (HUVEC [18]): Active
- Activity [19]: Non-Toxic
- Activity (K562): Active
- Activity (PC-3 [20]): 4.07%
- inhibition [21]: Active
